Values quoted from earlier work, collected in patent US20230354835A1, “USE OF LIQUID SMOKE IN CONJUNCTION WITH FOOD GRADE COATINGS TO CONTROL PEST INFESTATIONS” (Mississippi State University, priority 2022, published 2023).

System: Tyrophagus putrescentiae
Details: Abbar et al., 2016a; coating on ham cubes 2.5×2.5×2.5 cm^3

SMILES: CC(O)CO (stereo not shown) [100% propylene glycol, 1,2-propanediol]
- Inhibition of mite growth on dry-cured ham cubes (in words): effective at inhibiting mite growth
